# Test results: patent publication US20030100479A1, “Gene polymorphisms and response to treatment” (priority 2001, published 2003)
# Experiments:
# [1] = Clinical trial of GW320659: change in Food Craving Inventory (Total) score week 0 to week 24, by genotype; format: in vivo, human; conditions: for Change in Food Craving Inventory, mean response: 10 mg+15 mg; for Placebo adjusted mean change in Food Craving Inventory (Total) score: 15 mg dose group; for Mean change in Food Craving Inventory (Total) score: data not shown
# From the text: (§1) Using genotyping methods as are well known in the art, genetic data were obtained from approximately 200 of more than 500 human subjects enrolled in a dose-ranging efficacy and safety study of GW320659 for weight loss (main study group; a randomized, double-blind, placebo controlled, dose-ranging clinical trial); GW320659 was used in conjunction with a mildly hypocaloric diet and brief weight management guidance. Subjects were between the ages of 18-65 years, with a Body Mass Index (BMI) of 30-40, and were not on any psychotropic medications or other anti-obesity medications. Subjects were randomized into one of five treatment groups: placebo or GW320659 at 2.5 mg/day, 5 mg/day, 10 mg/day, or 15 mg/day (oral administration). In the main study group, for the GW320659 15 mg/day dosage, average weight loss was approximately 3.7 kg (108 subjects; data not shown).
# (§2) Subjects were assessed for various parameters, including absolute change in body weight from week 0 to week 24 of the study; supine heart rate, diastolic blood pressure and systolic blood pressure at multiple predetermined time-points across the study; and change in Food Craving Inventory (Total) score from week 0 to week 24.
# The endpoint of Change in Food Craving Inventory (total score) was analyzed with the same methods.
# The Food Craving Inventory used was a validated scale developed at Louisiana State University. It is a scale of 37 items designed to measure food cravings for specific foods. For each item the subject is asked “Over the past month, how often have you experienced a craving for the food?”. Possible responses were Never, Rarely, Sometimes, Often, and Always. These responses were converted to ordinal scores (1, 2, 3, 4, 5). The mean total score was computed for each patient. Change from baseline mean scores were analyzed. Possible range for this measure was −4 to 4; a negative number indicates a decrease in cravings.
# The change in Food Craving Inventory was assessed by grouping low dose treatments together (2.5+5 mg treatments) and higher dose treatments together (10 mg+15 mg), and comparing to placebo, using a p-value threshold set at […] (the minimum level necessary to get further automatic splits). The software then determined the remaining splits for the 10 mg+15 mg group. The splits found in the 10+15 mg group were then manually duplicated for the lower dose group (2.5+5 mg) for comparison purposes. As an example, for the 10 mg+15 mg treatment doses, the mean response for subjects with genotype 1, 2 or 2,2 for the NET1 C120A genetic marker and a baseline weight greater than 86.6 kg, was −0.55 (std=0.37 n=49). FIG. 11. For all subjects not in the defined subgroup, mean response was −0.02 (std=0.60, n=25).
# [2] = Dose-ranging clinical trial of GW320659 for weight loss: absolute change in body weight week 0 to week 24, by genotype; format: in vivo, human; conditions: for Placebo adjusted mean absolute change in body weight / Placebo adjusted mean absolute change in weight: 15 mg dose group
# From the text: The present inventors determined that the genetic polymorphisms identified herein are associated with differences in phenotypic response to treatment with the neuronal monoamine reuptake inhibitor GW320659. In the present study, the genotyped subjects had been recruited from a randomized placebo-controlled study of GW320659 for the treatment of obesity, in conjunction with a mildly hypocaloric diet and brief weight management guidance. Subjects had been randomized into one of five treatment groups: placebo or GW320659 at 2.5 mg/day, 5 mg/day, 10 mg/day, or 15 mg/day; outcome measurements included weight loss over baseline weight and changes in supine heart rate, supine diastolic blood pressure, and supine systolic blood pressure.
# The primary outcome measurement was the individual's absolute change from baseline body weight (weight at week 0, randomization visit) to weight after 24 weeks of treatment. Genotypes associated with at least a 5.8 kg average weight loss over the 24 week study for subjects receiving 15 mg/day GW320659 are shown in Table 2. The average weight loss in the total (non-genotyped) clinical trial of GW320659 (at the 15 mg/day dosage) was 3.7 Kg (data not shown).
# as §1, §2
# Change in body weight was analyzed using Analysis of Variance (ANOVA); body weight at Week 0 (randomization visit) was used as the baseline weight. The absolute change from baseline in body weight at week 24 was the dependent (response) variable. The primary independent variables were treatment group and genotype. Treatment by genotype interaction was assessed with the appropriate orthogonal trend (treatment) by genotype contrasts. […] The primary model is denoted as follows:
# Recursive partioning (HelixTree Software, May 1, 2001) was used to further examine the data. Due to sample size constraints, a combination of automatic and manual splits were used to best describe the underlying relationships between genotypes, treatment dose, and other demographic variables for each selected endpoint. Recursive partioning was applied to the following endpoints: change in weight, change in food craving (total score) inventory, change (Area Under the Curve (AUC) adjusted) in supine heart rate, and change (AUC adjusted) in supine diastolic blood pressure.
# The multilocus genotypes from each individual were used to enumerate all possible haplotypes. These haplotypes were assigned starting frequencies. The haplotype frequencies were updated with frequencies calculated from all the possible haplotypes from each individual in the sample. This continued until the frequencies were constant from iteration to iteration.
# Regression-based models were used to relate inferred haplotype probabilities for each individual with the continuous response.
# [3] = test system: dopamine reuptake; conditions: Kelley et al., J. Med. Chem. 39:347 (1996); cited from earlier work
# [4] = test system: norepinephrine uptake; conditions: Kelley et al., J. Med. Chem. 39:347 (1996); cited from earlier work
# [5] = subgroup 2/2 NET1T342C and/or 2/2 NET1G155A and/or 2/2 NR1G6435A, 10 mg/day+15 mg/day, 26 subjects
structure (smiles),measurement,setting,value
"C[C@@H]1CO[C@@](O)(c2cc(F)cc(F)c2)[C@H](C)N1.Cl [GW320659, (2S,3S,5R)-2-(3,5-difluorophenyl)-3,5-dimethyl-2-morpholinol]","Change in Food Craving Inventory, mean response","[1]; NET1 C120A genotype 1,2 or 2,2 and baseline weight greater than 86.6 kg, std=0.37 n=49",−0.55
same,"Change in Food Craving Inventory, mean response","[1]; all subjects not in the defined subgroup, std=0.60, n=25",−0.02
same,Placebo adjusted mean change in Food Craving Inventory (Total) score,"[1]; 5HTT G160A 2,2 genotype, scale range −4 to 4",0.7
same,Mean change in Food Craving Inventory (Total) score,"[1]; DRD2 C12121T 1,1 genotype, 15 mg dose",−0.7
same,Mean change in Food Craving Inventory (Total) score,"[1]; DRD2 C20236T 2,2 genotype, 15 mg dose",−0.7
same,Placebo adjusted mean change in Food Craving Inventory (Total) score,"[1]; NET1 C120A genotype 1,1",0.2
same,Placebo adjusted mean change in Food Craving Inventory (Total) score,"[1]; NET1 C120A genotype 1,2",−0.4
same,Placebo adjusted mean change in Food Craving Inventory (Total) score,"[1]; NET1 C120A genotype 2,2",−0.4
same,Mean change in Food Craving Inventory (Total) score,"[1]; NET1 T342C 2,2 genotype, 10 mg dose",−0.7
same,Mean change in Food Craving Inventory (Total),[1]; [5],−0.528
same,"Average weight loss, main study group","[2]; 15 mg/day oral, 108 subjects, data not shown",approximately 3.7 kg
same,"Average weight loss, total (non-genotyped) clinical trial","[2]; 15 mg/day, 24 weeks, not divided by genotype, data not shown",3.7 kg
same,Average weight loss,"[2]; 5HTT Del-Ins (1,2) genotype, 15 mg/day dose",-5.2 kg
same,Average Weight Loss (Kg)(range),"[2]; 5HTT G160A genotype 2,2, 15 mg/day, 24 weeks","−6.1 (−10.3, −3.2) Kg"
same,Average Weight Loss (Kg)(range),"[2]; 5HTT G769T genotype 1,1, 15 mg/day, 24 weeks","−6.0 (−9.5, −3.2) Kg"
same,Average Weight Loss (Kg)(range),"[2]; DAT1 genotype 9,9, 15 mg/day, 24 weeks","−7.6 (−22.1, −1.1) Kg"
same,Average Weight Loss (Kg)(range),"[2]; DAT1 genotype 10,9, 15 mg/day, 24 weeks","−6.6 (−20.4, 1.3) Kg"
same,Average Weight Loss (Kg)(range),"[2]; NET1 C120A genotype 2,2, 15 mg/day, 24 weeks","−5.8 (−20.4, 1.3) Kg"
same,Absolute change in weight (largest for any sub-group),"[2]; NET1 G155A 2,2 genotype, 15 mg dose, n=4",-9.0 kg
same,Average Weight Loss (Kg)(range),"[2]; NET1 G155A genotype 2,2, 15 mg/day, 24 weeks","−9.0 (−20.4, −3.3) Kg"
same,Mean absolute change in weight,"[2]; NET1 T342C 2,2 genotype, 15 mg dose, n=7",-7.1 kg
same,Weight loss compared to subjects with alternate genotypes,"[2]; NET1 T342C (2,2) and without DRD2 C12121T (2,2), 10 mg/day or 15 mg/day",increased weight loss
same,Placebo adjusted mean absolute change in body weight,"[2]; NET1 T342C genotype 1,1",-2.8 kg
same,Placebo adjusted mean absolute change in body weight,"[2]; NET1 T342C genotype 1,2",-3.3 kg
same,Placebo adjusted mean absolute change in body weight,"[2]; NET1 T342C genotype 2,2",-7.3 kg
same,Average Weight Loss (Kg)(range),"[2]; NET1 T342C genotype 2,2, 15 mg/day, 24 weeks","−7.1 (−13.7, 0) Kg"
same,Average Weight Loss (Kg)(range),"[2]; NR1 G1001C genotype 1,2, 15 mg/day, 24 weeks","−6.0 (−13.7, −0.9) Kg"
same,Placebo adjusted mean absolute change in weight,"[2]; NR1 G6435A genotype 1,1",-4.4 kg
same,Placebo adjusted mean absolute change in weight,"[2]; NR1 G6435A genotype 1,2",-1.9 kg
same,Placebo adjusted mean absolute change in weight,"[2]; NR1 G6435A genotype 2,2, three placebo and four GW320659 subjects",-10.3 kg
same,Average Weight Loss (Kg)(range),"[2]; NR1 G6435A genotype 2,2, 15 mg/day, 24 weeks","−6.9 (−9.2, −3.3) Kg"
same,"Weight Loss at 24 weeks, Mean","[2]; haplotype 1,1 NET1G155A NET1T342C, All Ethnicities, 10-15 mg (Table 4)",−2.007
same,"Weight Loss at 24 weeks, Mean","[2]; haplotype 1,1 NET1G155A NET1T342C, Caucasians, 10-15 mg (Table 5)",−1.739
same,"Weight Loss at 24 weeks, Mean","[2]; haplotype 1,2 NET1G155A NET1T342C, All Ethnicities, 10-15 mg (Table 4)",−4.325
same,"Weight Loss at 24 weeks, Mean","[2]; haplotype 1,2 NET1G155A NET1T342C, Caucasians, 10-15 mg (Table 5)",−4.416
same,"Weight Loss at 24 weeks, Mean","[2]; haplotype 2,1 NET1G155A NET1T342C, All Ethnicities, 10-15 mg (Table 4)",−3.886
same,"Weight Loss at 24 weeks, Mean","[2]; haplotype 2,1 NET1G155A NET1T342C, Caucasians, 10-15 mg (Table 5)",−2.9211
same,"Weight Loss at 24 weeks, Mean","[2]; haplotype 2,2 NET1G155A NET1T342C, All Ethnicities, 10-15 mg (Table 4)",−9.99
same,"Weight Loss at 24 weeks, Mean","[2]; haplotype 2,2 NET1G155A NET1T342C, Caucasians, 10-15 mg (Table 5)",−9.413
same,Mean weight loss,"[2]; subgroup 2,2 for NET1T342C and/or NET1G155A and/or NR1G6435A, 10 mg/day+15 mg/day combined, 24 weeks",6.05 kg
same,Change in weight at Week 24,[2]; [5],-6.05 kg
same,Mean weight loss at 24 weeks,[2]; subgroup 2/2 for NET1T342C and not 2/2 for DRD2C12121T,≥ 6 kg
same,Mean weight loss,"[2]; subgroup DAT1VNTR 10,9 or 9,9, 15 mg/day, 24 weeks",6.89 kg
same,Inhibition of dopamine reuptake,[3],weaker reuptake inhibition effects on dopamine reuptake
same,Inhibition of norepinephrine uptake,[4],"potent, selective inhibitor of norepinephrine uptake"
